The source of these data is patent publication US20010056085A1, “Methods of using vesicant drug formulations” (priority 1996, published 2001).

Data set [1] is described as follows: Effect of UVA irradiation on the absorbance spectrum of DOX (350-600 nm; KDOX at 480 nm). The class given is physicochemical. The note with it: for photoenhancing effect on riboflavin-mediated UVA destruction of DOX (absorbance at 480 nm): 100 μM compound, 0.5 μM riboflavin in PBS without Ca2+ and Mg2+, 0 to 20 minutes UVA.
In data set [2] the test system is P388 cells. In words: In vitro cell culture assay: growth inhibitory effect of UVA-irradiated DOX solutions. The format is cell-based, murine. The note with it: 0.3 μM DOX in PBS, 8 min UVA. As for the experimental part:
Cell culture was carried out as previously described (Ramu et al. [1984] Cancer Res., 44:144). Briefly, P388 murine leukemia cells (i.e., P388D1 available from the ATCC; […] An inoculum of cells was transferred to fresh medium once every 4 days to maintain exponential growth. […] Drug solutions (0.2 ml/well) in 24 well culture clusters without the lid were irradiated in a laminar flow hood with 3 Blacklight Blue 40 W lamps (Vilber Lourmat, Marne la Vallee, France).

The nature of data set [3]: Half-life of ADR destruction by UVA light in the presence of test compounds (decrease in absorbance at 480 nm). The format is physicochemical.
[4] abbreviates: UVA light, 100 μM test compound with 0.5 μM riboflavin.
The mark [5] stands for this setting: UVA light, 100 μM test compound alone.

Entries after “also recorded” stand apart in the source; their conditions may differ. Where two headings read alike, the source gives them in different places.

Regarding `N[C@@H](Cc1ccc(O)cc1)C(=O)O` [4-Hydroxy Phenylalanine (Tyrosine), 4-Hydroxy Phenylalanine], in data set [1] (20 μM DOX), the “photoenhancing effect on riboflavin-mediated UVA destruction of DOX (absorbance at 480 nm)” value (“photoenhancing effect” below) was “enhanced; also recorded: greatest photenhancing effect”. The “effect on the absorbance spectrum of DOX under UVA without riboflavin” value in data set [1] (100 μM tyrosine, 20 μM DOX in PBS pH 7.2) is reported as “essentially no impact on the absorbance spectrum of DOX”.
As to `O=S(=O)(O)CCN1CCN(CCO)CC1` [HEPES, N-2-hydroxyethylpiperazine-N′-2-ethanesulfonic acid], in data set [1] (5 mM HEPES, 20 μM DOX, riboflavin in PBS), the “effect on riboflavin-mediated photoinactivation of DOX” value is on record as “accelerate the riboflavin-mediated photoinactivation of DOX”.
On to `O=C1O[C@H]([C@@H](O)CO)C(O)=C1O` [ascorbate, ascorbic acid], for which the “effect on the UVA-induced decrease of DOX absorbance” value in data set [1] (0.16 mM ascorbate, 20 μM DOX in RPMI medium 1640) was “this decrease was smaller”; in data set [1] (1.6 mM ascorbate, 20 μM DOX in RPMI medium 1640, 20 minutes of irradiation), “no changes in the absorbance spectrum of DOX”.
As for `CSCC[C@H](N)C(=O)O` [Methionine], the “photoenhancing effect” value in data set [1] (20 μM DOX) is listed as “enhanced”.
On to `Cc1cc2nc3c(=O)[nH]c(=O)nc-3n(C[C@H](O)[C@H](O)[C@H](O)COP(=O)(O)O)c2cc1C` [FMN, flavin mononucleotide], for which the “effectiveness relative to FAD in mediating UVA obliteration of the DOX growth inhibitory effect” value in data set [2] amounted to 5 fold.
Regarding `NC(Cc1c[nH]c2ccccc12)C(=O)O` (stereo not drawn) [α-Amino-Indole-3-propionic acid], the “photoenhancing effect” value in data set [1] (20 μM DOX) is reported as “enhanced”. For the same compound, the “effect on destruction of DOX in a riboflavin formulation by UVA irradiation” value in data set [1] (100 μM tryptophan, 20 μM DOX, 0.5 μM riboflavin in PBS) was “enhanced”.
Turning to `O=C(O)CN(CCN(CC(=O)O)CC(=O)O)CC(=O)O` [EDTA, ethylenediaminetetraacetic acid], in data set [1] (20 μM DOX), the “photoenhancing effect” value was “enhanced”.
Consider `N[C@@H](Cc1ccccc1)C(=O)O` [Phenylalanine], for which, in data set [1] (20 μM DOX), the “photoenhancing effect” value is listed as “did not enhance”. Also, in data set [3] (setting [4]), the “Half-Life of ADR Destruction, 100 μM Test Compound and 0.5 μM Riboflavin” value worked out at 75.3 min.
Take superoxide dismutase: in data set [1] (300 U/ml SOD, 20 μM DOX in PBS), the “effect on DOX inactivation by riboflavin or riboflavin-tyrosine and UVA” value is listed as “accelerates the rate at which DOX is inactivated”.
Turning to `N[C@@H](Cc1c[nH]cn1)C(=O)O` [Histidine], the “photoenhancing effect” value in data set [1] (20 μM DOX) is listed as “enhanced”. Besides, the “Half-Life of ADR Destruction, 100 μM Test Compound and 0.5 μM Riboflavin” value in data set [3] (setting [4]) came out at 55.2 ± 7.1 min.
Regarding `COc1cccc2c1C(=O)c1c(O)c3c(c(O)c1C2=O)C[C@@](O)(C(=O)CO)C[C@@H]3O[C@H]1C[C@H](N)[C@H](O)[C@H](C)O1.Cl` [DOX, Doxorubicin HCl, reference compound], the “first order rate constant of the decrease in DOX absorbance (KDOX)” value in data set [1] (20 μM DOX in RPMI medium 1640 without phenol red, 50 mM HEPES pH 7.2, UVA) was determined as 0.000417 s⁻¹. Also, the “UVA irradiation required to destroy the DOX absorbance spectrum” value in data set [1] (20 μM DOX, 2 μM riboflavin and 5 nM DABCO (FIG. 12)) was 20 min. Besides, the “UVA irradiation required to eliminate the DOX absorbance spectrum” value in data set [1] (20 μM DOX, 20 μM riboflavin, 5 mM DABCO in PBS (FIG. 13B)) was “less than 2 minutes”. Also, the “time in which the DOX absorbance spectrum disappeared” value in data set [1] (20 μM DOX, 20 μM riboflavin, 5 mM DABCO, PBS without Ca2+ and Mg2+ (FIG. 13C)) was “less than 1 minute”.
Take `COc1[nH]c2ccccc2c1CN(C)C` [2-Methoxy-3-(dimethylaminomethyl) indole]: the “Half-Life of ADR Destruction, 100 μM Test Compound” value in data set [3] (setting [5]) is 75.3 min. Further, the “Half-Life of ADR Destruction, 100 μM Test Compound and 0.5 μM Riboflavin” value in data set [3] (setting [4]) stood at 13.7 min.
In the case of `CCCCCc1ccc(N)cc1` [4-Pentyl Aniline], the “Half-Life of ADR Destruction, 100 μM Test Compound and 0.5 μM Riboflavin” value in data set [3] (setting [4]) turned out to be 4.12 min.
In the case of `Nc1ccc(S(N)(=O)=O)cc1` [4-Amino Benzenesulfonamide], the “Half-Life of ADR Destruction, 100 μM Test Compound and 0.5 μM Riboflavin” value in data set [3] worked out at 25.1 min.
On to `COc1ccc2c(C(=O)O)cccc2c1` [6-Methoxynaphthalene-1-carboyxlic acid], for which the “Half-Life of ADR Destruction, 100 μM Test Compound” value in data set [3] (setting [5]) was determined as 18.8 min. The “Half-Life of ADR Destruction, 100 μM Test Compound and 0.5 μM Riboflavin” value in data set [3] (setting [4]) amounted to 4.49 min.
Taken in the same sequence, the figures for `COc1ccc(C(=O)CCC(=O)O)c2ccccc12` [Menbutone, 4-Methoxy-γ-oxo-1-naphthalenebutyric acid, reference compound] were 2.21 min and 1.37 min.
Regarding `Cc1ccc(N)cc1CO` [3-Amino-6-Methyl Benzyl Alcohol], the “Half-Life of ADR Destruction, 100 μM Test Compound and 0.5 μM Riboflavin” value in data set [3] (setting [4]) amounted to 16.7 min.
On to `COc1ccc(C(=O)c2cccc(C(=O)O)c2)cc1OC` [3′,4′-Dimethoxy-3-benzophenonecarboxylic acid], for which the “Half-Life of ADR Destruction, 100 μM Test Compound” value in data set [3] (setting [5]) came out at 50.2 min. In data set [3] (setting [4]), the “Half-Life of ADR Destruction, 100 μM Test Compound and 0.5 μM Riboflavin” value was 43.0 min.
Take `Nc1cccc2cc(S(=O)(=O)O)ccc12` [5-Amino-2-naphthalenesulfonic acid]: in data set [3] (setting [5]), the “Half-Life of ADR Destruction, 100 μM Test Compound” value was found to be 50.2 min.
On to `CC(=O)c1c[nH]c2ccccc12` [3-Acetylindole], for which, in data set [3] (setting [4]), the “Half-Life of ADR Destruction, 100 μM Test Compound and 0.5 μM Riboflavin” value worked out at 33.5 min.
Consider `CC(C(=O)O)c1ccc(-c2ccccc2)cc1` (stereo not drawn) [4-Phenyl α-Methyl-Phenylacetic Acid], for which the “Half-Life of ADR Destruction, 100 μM Test Compound and 0.5 μM Riboflavin” value in data set [3] (setting [4]) worked out at 27.4 min.
Turning to `OCc1ccc2ccccc2c1` [2-Naphthalenemethanol], the “Half-Life of ADR Destruction, 100 μM Test Compound and 0.5 μM Riboflavin” value in data set [3] (setting [4]) was 50.2 min.
For `CC(=O)Oc1ccc2ccccc2c1` [2-Naphthyl acetate], the “Half-Life of ADR Destruction, 100 μM Test Compound” value in data set [3] (UVA light, test compound alone, +4% DMSO) came to 43.0 min. In data set [3] (UVA light, with 0.5 μM riboflavin, +4% DMSO), the “Half-Life of ADR Destruction, 100 μM Test Compound and 0.5 μM Riboflavin” value worked out at 33.5 min.
In the case of `Nc1cccc(Oc2ccccc2)c1` [3-Phenoxyaniline], in data set [3] (setting [5]), the “Half-Life of ADR Destruction, 100 μM Test Compound” value is 43.0 min. Besides, the “Half-Life of ADR Destruction, 100 μM Test Compound and 0.5 μM Riboflavin” value in data set [3] (setting [4]) came out at 12.5 min.
As to `Nc1cccc(C(=O)O)c1` [3-Amino Benzoic Acid], the “Half-Life of ADR Destruction, 100 μM Test Compound and 0.5 μM Riboflavin” value in data set [3] (setting [4]) is 16.7 min.
Still for that read-out and setting: in the case of 3-Amino Phenylsulfone it was 8.60 min; in that of `Nc1ccc(S(=O)(=O)O)cc1` [4-Amino Benzenesulfonic acid], 18.8 min; in that of `O=c1[nH]cnc2nc[nH]c12` [Hypoxanthine], 43.0 min.
For `COc1ccc(CCCCO)cc1` [4-(4-Methoxyphenyl)-1-Butanol], the “Half-Life of ADR Destruction, 100 μM Test Compound” value in data set [3] (setting [5]) is 43.0 min. The “Half-Life of ADR Destruction, 100 μM Test Compound and 0.5 μM Riboflavin” value in data set [3] (setting [4]) amounted to 3.46 min.
For the compound `CCC(C)c1ccccc1N` (stereo not drawn) [2-sec-Butyl Aniline], the “Half-Life of ADR Destruction, 100 μM Test Compound and 0.5 μM Riboflavin” value in data set [3] (setting [4]) was found to be 10.4 min.
Consider `COc1ccc2[nH]c3ccccc3c(=O)c2c1` [2-Methoxy-9(10H) Acridone], for which, in data set [3], the “Half-Life of ADR Destruction, 100 μM Test Compound” value came to 23.2 min; the “Half-Life of ADR Destruction, 100 μM Test Compound and 0.5 μM Riboflavin” value turned out to be 16.7 min.
Consider `COc1ccc(C=CC(=O)O)cc1OC` [3,4-Dimethoxy Cinnamic Acid], for which the “Half-Life of ADR Destruction, 100 μM Test Compound” value in data set [3] (setting [5]) was 43.0 min. The “Half-Life of ADR Destruction, 100 μM Test Compound and 0.5 μM Riboflavin” value in data set [3] (setting [4]) worked out at 5.68 min.
Taken in the same sequence, the figures for `COc1ccc(C=CCO)cc1O` [3-Hydroxy-4-Methoxy Cinnamyl Alcohol] were 50.2 min and 50.2 min.
Taken in the same sequence, the figures for `Cn1c(=O)c2[nH]c(=O)[nH]c2n(C)c1=O` [1,3-Dimethyl Uric acid] were 75.3 min and 21.5 min.
Taken in the same sequence, the figures for `CC(C(=O)O)c1ccc(N2Cc3ccccc3C2=O)cc1` (stereo not drawn) [Indoprofen, 4-(1-Isoindolinone)-α-Methyl Phenylacetic Acid, reference compound] were 75.3 min and 25.1 min.
For the compound `O=C(O)Cc1ccsc1` [Thiophene-3-acetic acid], the “Half-Life of ADR Destruction, 100 μM Test Compound” value in data set [3] (setting [5]) came out at 43.0 min. In addition, the “Half-Life of ADR Destruction, 100 μM Test Compound and 0.5 μM Riboflavin” value in data set [3] (setting [4]) came to 33.5 min.
For `O=C(O)c1cc2ccccc2[nH]1` [Indole-2-carboxylic acid], the “Half-Life of ADR Destruction, 100 μM Test Compound and 0.5 μM Riboflavin” value in data set [3] (setting [4]) was 9.12 min.
Regarding `O=C(O)CCCc1ccccc1` [4-Phenyl Butyric Acid], the “Half-Life of ADR Destruction, 100 μM Test Compound” value in data set [3] (setting [5]) was determined as 43.0 min. In addition, the “Half-Life of ADR Destruction, 100 μM Test Compound and 0.5 μM Riboflavin” value in data set [3] (setting [4]) was 33.5 min.
As for `COc1cc2ccc(=O)oc2cc1OC` [6,7-Dimethoxycoumarin], the “Half-Life of ADR Destruction, 100 μM Test Compound” value in data set [3] (setting [5]) was 21.5 min.
For the compound `NCCc1ccc(O)c(O)c1` [3,4-Dihydroxy Phenethylamine (Dopamine), 3,4-Dihydroxy Phenethylamine], the “Half-Life of ADR Destruction, 100 μM Test Compound and 0.5 μM Riboflavin” value in data set [3] (setting [4]) amounted to 301.0 min.
The same measure, in the same setting: in the case of `COc1ccc(C[C@H](N)C(=O)O)cc1` [4-Methoxy Phenylalanine] it was 15.1 min.
Regarding `CCCCc1ccc(N)cc1` [4-Butyl Anilne], the “Half-Life of ADR Destruction, 100 μM Test Compound and 0.5 μM Riboflavin” value in data set [3] was 7.17 min.
Regarding `COc1ccc2ccccc2c1CO` [2-Methoxy-1-naphthalenemethanol], in data set [3] (setting [4]), the “Half-Life of ADR Destruction, 100 μM Test Compound and 0.5 μM Riboflavin” value was determined as 4.43 min.
The same measure, in the same setting: in the case of `Cc1ccc(N)c(CO)c1` [2-Amino-5-Methyl Benzyl Alcohol] it was 24.5 ± 8.0 min.
